Results on five compounds are retold here after patent US7217726B2, “Antibacterial agents” (Orchid Chemicals & Pharmaceuticals Limited, priority 2002, dated 2007).

In one data set the test system is S. aureus MRO 00059. The data set is described as follows: Agar Dilution Method MIC, S. aureus MRO 00059. In kind it is cell-based. Conditions: Staphylococcus aureus, MRO00059, Mueller Hinton Agar, 35° Celsius, 20 hours, read-out: Minimum Inhibitory Concentration (MIC in μg/ml). The protocol: (§1) Briefly, the compounds of invention were weighed, dissolved in Dimethyl Sulfoxide, serially diluted in the same solvent and then incorporated into molten Mueller Hinton Agar in a petridish before solidification, with each petridish containing a different concentration of a compound.
(§2) The Bacterial Inoculum was prepared by touching the tops of 3 to 5 well isolated bacterial colonies with the same morphological appearance from an 18 hour old culture with an inoculating loop, transfering the growth to a tube containing 5 ml of normal saline and adjusting the turbidity of the saline suspension to 0.5 Macfarland Turbidity Standard equivalent to a bacterial population of 1.5×10^8 colony forming units (CFU) per millilitre of suspension.
(§3) The bacterial inoculum prepared in the above manner was inoculated onto petri dishes containing Mueller Hinton Agar which had earlier been incorporated with different dilutions of the compounds of invention by a Multipoint Inoculator with each inoculum spot containing approximately 1×10^4 colony forming units (CFU) of bacteria.
(§4) The inoculated petridishes were incubated at 35° Celsius in an ambient atmosphere for 20 hours. Petridishes containing different concentrations of Vancomycin and Oxacillin and inoculated with Staphylococcus aureus, Coagulase Negative Staphylococci and Enterococci were incubated for 24 hours.
(In agar dilution, organisms are placed on agar that contains the substance at set levels.)

Another data set deals with E. fecalis MRO 04045. The experiment in a line: Agar Dilution Method MIC, E. fecalis MRO 04045. Conditions: Enterococcus faecalis, MRO04045, Mueller Hinton Agar, 35° Celsius, 20 hours, read-out: Minimum Inhibitory Concentration (MIC in μg/ml). It counts as cell-based. The protocol:
as §1, §2, §3, §4

The next data set has as its system E. faecalis ATCC 51299. The experiment in a line: Agar Dilution Method MIC, E. faecalis ATCC 51299. It counts as cell-based. The conditions noted are these: Enterococcus faecalis, ATCC51299, Mueller Hinton Agar, 35° Celsius, 20 hours, read-out: Minimum Inhibitory Concentration (MIC in μg/ml). The protocol: as §1, §2, §3, §4
For data set [1], the system named is M. catarrhalis ATCC 43617. The data set is described as follows: Agar Dilution Method MIC, M. catarrhalis ATCC 43617. In kind it is cell-based, Morexella catarrhalis. Conditions: Moraxella catarrhalis, ATCC43617, Mueller Hinton Agar, 35° Celsius, 20 hours, read-out: Minimum Inhibitory Concentration (MIC in μg/ml). The protocol: as §1, §2, §3, §4
For the next data set, the system named is S. aureus MRO 00001. The experiment in a line: Agar Dilution Method MIC, S. aureus MRO 00001. In kind it is cell-based. Conditions: Staphylococcus aureus, MRO00001, Mueller Hinton Agar, 35° Celsius, 20 hours, read-out: Minimum Inhibitory Concentration (MIC in μg/ml). The method, then:
as §1, §2, §3, §4

In a further data set the test system is S. aureus ATCC 29213. The experiment in a line: Agar Dilution Method MIC, S. aureus ATCC 29213. It counts as cell-based. Conditions: Staphylococcus aureus, ATCC29213, Mueller Hinton Agar, 35° Celsius, 20 hours, read-out: Minimum Inhibitory Concentration (MIC in μg/ml). The protocol:
as §1, §2, §3, §4

The subject of a further data set is S. aureus MRO 00030. The data set is described as follows: Agar Dilution Method MIC, S. aureus MRO 00030. In kind it is cell-based. The conditions noted are these: Staphylococcus aureus, MRO00030, Mueller Hinton Agar, 35° Celsius, 20 hours, read-out: Minimum Inhibitory Concentration (MIC in μg/ml). The method, then: as §1, §2, §3, §4
For a further data set, the system named is S. epidermidis MRO 02046. The experiment in a line: Agar Dilution Method MIC, S. epidermidis MRO 02046. It counts as cell-based. The conditions noted are these: Staphylococcus epidermidis, MRO02046, Mueller Hinton Agar, 35° Celsius, 20 hours, read-out: Minimum Inhibitory Concentration (MIC in μg/ml). The method, then:
as §1, §2, §3, §4

Data set [2] has as its system M. catarrhalis ATCC 43628. The experiment in a line: Agar Dilution Method MIC, M. catarrhalis ATCC 43628. It counts as cell-based, Morexella catarrhalis. The conditions noted are these: Moraxella catarrhalis, ATCC43628, Mueller Hinton Agar, 35° Celsius, 20 hours, read-out: Minimum Inhibitory Concentration (MIC in μg/ml). The method, then:
as §1, §2, §3, §4

For data set [3], the system named is M. catarrhalis ATCC 43627. The data set is described as follows: Agar Dilution Method MIC, M. catarrhalis ATCC 43627. In kind it is cell-based, Morexella catarrhalis. Conditions: Moraxella catarrhalis, ATCC43627, Mueller Hinton Agar, 35° Celsius, 20 hours, read-out: Minimum Inhibitory Concentration (MIC in μg/ml). The method, then:
as §1, §2, §3, §4

The subject of another data set is S. aureus MRO 00013. The experiment in a line: Agar Dilution Method MIC, S. aureus MRO 00013. In kind it is cell-based. Conditions: Staphylococcus aureus, MRO00013, Mueller Hinton Agar, 35° Celsius, 20 hours, read-out: Minimum Inhibitory Concentration (MIC in μg/ml). The protocol:
as §1, §2, §3, §4

A further data set relates to S. aureus ATCC 43300. The data set is described as follows: Agar Dilution Method MIC, S. aureus ATCC 43300. In kind it is cell-based. The conditions noted are these: Staphylococcus aureus, ATCC43300, Mueller Hinton Agar, 35° Celsius, 20 hours, read-out: Minimum Inhibitory Concentration (MIC in μg/ml). The protocol:
as §1, §2, §3, §4

The next data set relates to S. aureus MRO 00055. The experiment in a line: Agar Dilution Method MIC, S. aureus MRO 00055. In kind it is cell-based. Conditions: Staphylococcus aureus, MRO00055, Mueller Hinton Agar, 35° Celsius, 20 hours, read-out: Minimum Inhibitory Concentration (MIC in μg/ml). The protocol: as §1, §2, §3, §4
In another data set the test system is S. aureus MRO 00003. The experiment in a line: Agar Dilution Method MIC, S. aureus MRO 00003. In kind it is cell-based. The conditions noted are these: Staphylococcus aureus, MRO00003, Mueller Hinton Agar, 35° Celsius, 20 hours, read-out: Minimum Inhibitory Concentration (MIC in μg/ml). The method, then: as §1, §2, §3, §4
For the next data set, the system named is S. aureus MRO 00048. The data set is described as follows: Agar Dilution Method MIC, S. aureus MRO 00048. In kind it is cell-based. Conditions: Staphylococcus aureus, MRO00048, Mueller Hinton Agar, 35° Celsius, 20 hours, read-out: Minimum Inhibitory Concentration (MIC in μg/ml). The protocol:
as §1, §2, §3, §4

For the next data set, the system named is E. faecalis ATCC 29212. The data set is described as follows: Agar Dilution Method MIC, E. faecalis ATCC 29212. It counts as cell-based. The conditions noted are these: Enterococcus faecalis, ATCC29212, Mueller Hinton Agar, 35° Celsius, 20 hours, read-out: Minimum Inhibitory Concentration (MIC in μg/ml). The method, then:
as §1, §2, §3, §4

≈ marks a conversion by molar mass, not a printed value.

In general, melting point refers to the temperature, or range, at which the solid turns liquid.

`CC(=O)NC[C@H]1CN(c2ccc(N3CCN(C(=S)CN)CC3)c(F)c2)C(=O)O1.Cl` returned a melting point of 202 to 204 °C.

For the compound `CC(=S)NC[C@H]1CN(c2ccc(N3CCN(C(=S)Cc4cccs4)CC3)c(F)c2)C(=O)O1` [Example 13, (S)-N-[3-[3-Fluoro-4-[4-(thiophen-2-ylthioacetyl)piperazin-1-yl]phenyl]-2-oxooxazolidin-5-ylmethyl]thioacetamide], the MIC worked out at 0.5 µg/mL (≈ 1.01 µM) with S. aureus MRO 00059; 1 µg/mL (≈ 2.03 µM) in the data set with E. fecalis MRO 04045; 0.5 µg/mL (≈ 1.01 µM) with E. faecalis ATCC 51299; 2 µg/mL (≈ 4.06 µM) in data set [1]; 0.25 µg/mL (≈ 0.507 µM) with S. aureus MRO 00001; 0.25 µg/mL (≈ 0.507 µM) with S. aureus ATCC 29213. In addition, the MIC with S. aureus MRO 00030 was 0.5 µg/mL (≈ 1.01 µM); in the data set on S. epidermidis MRO 02046, 0.25 µg/mL (≈ 0.507 µM); in [2], 2 µg/mL (≈ 4.06 µM); in data set [3], 2 µg/mL (≈ 4.06 µM); with S. aureus MRO 00013 it was 1 µg/mL (≈ 2.03 µM); with S. aureus ATCC 43300, 0.5 µg/mL (≈ 1.01 µM). Moreover, the MIC in the data set on S. aureus MRO 00055 is 1 µg/mL (≈ 2.03 µM); with S. aureus MRO 00003, 1 µg/mL (≈ 2.03 µM); in the data set on S. aureus MRO 00048, 0.25 µg/mL (≈ 0.507 µM); in the data set with E. faecalis ATCC 29212, 0.5 µg/mL (≈ 1.01 µM).

`CC(=S)NC[C@H]1CN(c2ccc(N3CCN(C(=S)c4ccc(Cl)s4)CC3)c(F)c2)C(=O)O1` [Example 8, (S)-N-[3-[3-Fluoro-4-[4-(5-chlorothiophen-2-ylthiocarbonyl)piperazin-1-yl]phenyl]-2-oxooxazolidin-5-ylmethyl]thioacetamide]: the MIC stood at 0.25 µg/mL (≈ 0.487 µM) in the data set on S. aureus MRO 00059; 0.25 µg/mL (≈ 0.487 µM) in the data set on E. fecalis MRO 04045; 0.25 µg/mL (≈ 0.487 µM) in the data set with E. faecalis ATCC 51299; 2 µg/mL (≈ 3.9 µM) in data set [1]; 0.25 µg/mL (≈ 0.487 µM) in the data set with S. aureus MRO 00001; 0.5 µg/mL (≈ 0.974 µM) in the data set with S. aureus ATCC 29213. In addition, the MIC in the data set on S. aureus MRO 00030 came to 0.5 µg/mL (≈ 0.974 µM); with S. epidermidis MRO 02046, 0.25 µg/mL (≈ 0.487 µM); in [2], 2 µg/mL (≈ 3.9 µM); in data set [3], 2 µg/mL (≈ 3.9 µM); with S. aureus MRO 00013 it was 0.5 µg/mL (≈ 0.974 µM); in the data set with S. aureus ATCC 43300, 0.25 µg/mL (≈ 0.487 µM). Moreover, the MIC with S. aureus MRO 00055 is 0.5 µg/mL (≈ 0.974 µM); in the data set with S. aureus MRO 00003, 0.5 µg/mL (≈ 0.974 µM); in the data set on S. aureus MRO 00048 it was 0.25 µg/mL (≈ 0.487 µM); in the data set with E. faecalis ATCC 29212, 0.25 µg/mL (≈ 0.487 µM).

In the case of `CC(=S)NC[C@H]1CN(c2ccc(N3CCN(C(=O)Nc4ccc([N+](=O)[O-])cc4)CC3)c(F)c2)C(=O)O1` [Example 46], the MIC was 0.5 µg/mL (≈ 0.968 µM) in the data set on S. aureus MRO 00059; 0.25 µg/mL (≈ 0.484 µM) in the data set on E. fecalis MRO 04045; 0.25 µg/mL (≈ 0.484 µM) in the data set with E. faecalis ATCC 51299; 2 µg/mL (≈ 3.87 µM) in data set [1]; 0.25 µg/mL (≈ 0.484 µM) in the data set on S. aureus MRO 00001; 0.5 µg/mL (≈ 0.968 µM) in the data set with S. aureus ATCC 29213. Also, the MIC was found to be 0.5 µg/mL (≈ 0.968 µM) in the data set with S. aureus MRO 00030; 0.25 µg/mL (≈ 0.484 µM) with S. epidermidis MRO 02046; 2 µg/mL (≈ 3.87 µM) in [2]; 2 µg/mL (≈ 3.87 µM) in data set [3]; 0.5 µg/mL (≈ 0.968 µM) in the data set with S. aureus MRO 00013; 0.25 µg/mL (≈ 0.484 µM) in the data set with S. aureus ATCC 43300. Also, the MIC was determined as 0.5 µg/mL (≈ 0.968 µM) with S. aureus MRO 00055, 0.5 µg/mL (≈ 0.968 µM) in the data set with S. aureus MRO 00003, 0.25 µg/mL (≈ 0.484 µM) with S. aureus MRO 00048 and 0.25 µg/mL (≈ 0.484 µM) in the data set on E. faecalis ATCC 29212.

In the case of `CC(=S)NC[C@H]1CN(c2ccc(N3CCN(C(=S)C4CC4)CC3)c(F)c2)C(=O)O1` [Example 6, (S)-N-[3-[3-Fluoro-4-[4-(cyclopropylthiocarbonyl)piperazin-1-yl]phenyl]-2-oxooxazolidin-5-ylmethyl]thioacetamide], the MIC with S. aureus MRO 00059 worked out at 0.25 µg/mL (≈ 0.573 µM); in the data set with E. fecalis MRO 04045, 1 µg/mL (≈ 2.29 µM); with E. faecalis ATCC 51299, 0.25 µg/mL (≈ 0.573 µM); in data set [1] it was 1 µg/mL (≈ 2.29 µM); in the data set on S. aureus MRO 00001, 0.25 µg/mL (≈ 0.573 µM); in the data set on S. aureus ATCC 29213 it was 0.5 µg/mL (≈ 1.15 µM). The MIC in the data set with S. aureus MRO 00030 came out at 0.5 µg/mL (≈ 1.15 µM); in the data set on S. epidermidis MRO 02046 it was 0.25 µg/mL (≈ 0.573 µM); in data set [2] it was 1 µg/mL (≈ 2.29 µM); in data set [3] it was 1 µg/mL (≈ 2.29 µM); with S. aureus MRO 00013 it was 1 µg/mL (≈ 2.29 µM); in the data set with S. aureus ATCC 43300, 0.25 µg/mL (≈ 0.573 µM). Besides, the MIC came out at 1 µg/mL (≈ 2.29 µM) with S. aureus MRO 00055, 1 µg/mL (≈ 2.29 µM) with S. aureus MRO 00003, 0.25 µg/mL (≈ 0.573 µM) in the data set on S. aureus MRO 00048 and 0.5 µg/mL (≈ 1.15 µM) in the data set on E. faecalis ATCC 29212.
